Key:
sodium channel = experiment: Guanidine influx assay (14C-guanidine radiotracer flux, in vitro); format: cell-based, human or rat; conditions: guanidine influx assay using a known cell line that expresses a sodium channel
In short: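 Cells stably expressing human or rat sodium channels (~100,000/well, 20–24 h) were exposed in low-sodium choline buffer to test agent plus aconitine activator and 14C-guanidine at ambient temperature. Intracellular 14C-guanidine was counted by scintillation; IC50 fitted by 4-parameter logistic over half-dilutions around 1 μM.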

CYP3A4 = CYP3A4 (Homo sapiens, UniProt P08684); experiment: Cytochrome P450 (CYP450) Inhibition Assay, CYP3A4 (Vivid fluorescence, BOMCC substrate); conditions: human, P450 Baculosomes (recombinant CYP3A4), probe BOMCC (Vivid substrate)
Chain of CYP3A4 (P08684 whole entry): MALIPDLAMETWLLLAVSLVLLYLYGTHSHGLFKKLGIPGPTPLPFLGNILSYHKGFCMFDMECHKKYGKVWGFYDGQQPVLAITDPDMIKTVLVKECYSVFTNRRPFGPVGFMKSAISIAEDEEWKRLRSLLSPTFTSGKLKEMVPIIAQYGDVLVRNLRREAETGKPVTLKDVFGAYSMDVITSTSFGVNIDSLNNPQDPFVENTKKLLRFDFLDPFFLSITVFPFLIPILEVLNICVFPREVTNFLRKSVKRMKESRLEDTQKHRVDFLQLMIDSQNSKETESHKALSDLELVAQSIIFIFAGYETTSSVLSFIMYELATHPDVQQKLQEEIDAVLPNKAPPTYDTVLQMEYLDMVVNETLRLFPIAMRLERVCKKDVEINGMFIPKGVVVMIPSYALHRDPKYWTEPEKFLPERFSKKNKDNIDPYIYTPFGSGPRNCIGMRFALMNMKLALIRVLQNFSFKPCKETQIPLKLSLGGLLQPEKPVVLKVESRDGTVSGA

O=C1N(Cc2noc(C(F)(F)F)n2)c2ccccc2C12COc1cc3c(cc12)OCO3 (stereo not drawn) [Example 11.72, 1-{[5-(trifluoromethyl)-1,2,4-oxadiazol-3-yl]methyl}spiro[furo[2,3-f][1,3]benzodioxole-7,3′-indol]-2′(1′H)-one]
melting point: 139 to 140 °C
IC50 (sodium channel): 1 to 100 nM
inhibition at 10 µM (CYP3A4): > 50%

Cc1c(F)cccc1NC(=O)c1ccccc1CN1C(=O)C2(COc3cc4c(cc32)CCO4)c2ccccc21 (stereo not drawn) [Example 12.14, N-(3-fluoro-2-methylphenyl)-2-[(2′-oxo-5,6-dihydrospiro[benzo[1,2-b:5,4-b′]difuran-3,3′-indol]-1′(2′H)-yl)methyl]benzamide]
melting point: > 230 °C
IC50 (sodium channel): 100 to 1000 nM
inhibition at 10 µM (CYP3A4): > 50%

COCCNC(=O)c1ccc(CN2C(=O)C3(COc4cc5c(cc43)CCO5)c3ccccc32)cc1 (stereo not drawn) [Example 12.40, N-(2-methoxyethyl)-4-[(2′-oxo-5,6-dihydrospiro[benzo[1,2-b:5,4-b′]difuran-3,3′-indol]-1′(2′H)-yl)methyl]benzamide]
melting point: 182 to 183 °C
IC50 (sodium channel): 100 to 1000 nM
inhibition at 10 µM (CYP3A4): < 50%

COc1cc(CN2C(=O)C3(COc4cc5c(cc43)OCCO5)c3ccccc32)ccc1F (stereo not drawn) [Example 4.95, 1-(4-fluoro-3-methoxybenzyl)-2,3-dihydrospiro[furo[2,3-g][1,4]benzodioxine-8,3′-indol]-2′(1′H)-one]
melting point: 161 to 163 °C
IC50 (sodium channel; activity level class): 1 to 100 nM
inhibition at 10 µM (CYP3A4): > 50%

N#CCN1C(=O)C2(COc3cc4c(cc32)OCO4)c2ccccc21 (stereo not drawn) [Example 4.73, (2′-oxospiro[furo[2,3-f][1,3]benzodioxole-7,3′-indol]-1′(2′H)-yl)acetonitrile]
melting point: 170 to 172 °C
IC50 (sodium channel; activity level class): 1 to 100 nM
inhibition at 10 µM (CYP3A4): > 50%

O=C1Nc2ccccc2C12COc1cc3nccnc3cc12 (stereo not drawn) [Example 3.51, spiro[furo[2,3-g]quinoxaline-8,3′-indol]-2′(1′H)-one]
melting point: 206 to 207 °C
IC50 (sodium channel; activity level class): 1000 to 10000 nM
inhibition at 10 µM (CYP3A4): < 50%

Cc1nc(-c2ccc(CN3C(=O)C4(COc5cc6c(cc54)OCCO6)c4ccccc43)cc2)no1 (stereo not drawn) [Example 11.84, 1′-[4-(5-methyl-1,2,4-oxadiazol-3-yl)benzyl]-2,3-dihydrospiro[furo[2,3-g][1,4]benzodioxine-8,3′-indol]-2′(1′H)-one]
melting point: 174 to 175 °C
IC50 (sodium channel): 1 to 100 nM
inhibition at 10 µM (CYP3A4): < 50%

CC(C)CCN1C(=O)[C@]2(COc3cc4c(cc32)CCO4)c2ccccc21 [Example 5.2, (3R)-1-(3-methylbutyl)-5,6-dihydrospiro[benzo[1,2-b:5,4-b′]difuran-3,3′-indol]-2′(1′H)-one]
melting point: 86 to 87 °C
IC50 (sodium channel; activity level class): 1000 to 10000 nM
inhibition at 10 µM (CYP3A4): > 50%

O=C(Nc1ccccc1F)c1ccccc1CN1C(=O)C2(COc3cc4c(cc32)CCO4)c2ccccc21 (stereo not drawn) [Example 12.12, N-(2-fluorophenyl)-2-[(2′-oxo-5,6-dihydrospiro[benzo[1,2-b:5,4-b′]difuran-3,3′-indol]-1′(2′H)-yl)methyl]benzamide]
melting point: 195 to 197 °C
IC50 (sodium channel): 100 to 1000 nM
inhibition at 10 µM (CYP3A4): > 50%

O=C1N(CCC(O)C(F)(F)F)c2ccccc2C12COc1cc3c(cc12)CCO3 (stereo not drawn) [Example 14.5, 1′-(4,4,4-trifluoro-3-hydroxybutyl)-5,6-dihydrospiro[benzo[1,2-b:5,4-b′]difuran-3,3′-indol]-2′(1′H)-one]
melting point: 124 to 126 °C
IC50 (sodium channel): 100 to 1000 nM
inhibition at 10 µM (CYP3A4): > 50%

O=C1N(C[C@H]2CCCO2)c2ccccc2C12COc1cc3c(cc12)OCCO3 (stereo partly drawn) [Example 4.44, 1′-[(2R)-tetrahydrofuran-2-ylmethyl]-2,3-dihydrospiro[furo[2,3-g][1,4]benzodioxine-8,3′-indol]-2′(1′H)-one]
melting point: 174 to 176 °C
IC50 (sodium channel; activity level class): 1 to 100 nM
inhibition at 10 µM (CYP3A4): < 50%

N#Cc1cccc(CN2C(=O)C3(COc4cc5c(cc43)OCCO5)c3ccccc32)n1 (stereo not drawn) [Example 41, 6-[(2′-oxo-2,3-dihydrospiro[furo[2,3-g][1,4]benzodioxine-8,3′-indol]-1′(2′H)-yl)methyl]pyridine-2-carbonitrile]
melting point: 213 to 215 °C
IC50 (sodium channel): 1 to 100 nM
inhibition at 10 µM (CYP3A4): < 50%

O=C1CC[C@@H](CN2C(=O)C3(COc4cc5c(cc43)OCO5)c3ccccc32)N1 (stereo partly drawn) [Example 4.72, 1′-{[(2S)-5-oxopyrrolidin-2-yl]methyl}spiro[furo[2,3-f][1,3]benzodioxole-7,3′-indol]-2′(1′H)-one]
melting point: 121 to 130 °C
IC50 (sodium channel; activity level class): 1000 to 10000 nM
inhibition at 10 µM (CYP3A4): > 50%

CC1(C)OC[C@H](CN2C(=O)C3(COc4cc5c(cc43)OCCO5)c3ccccc32)O1 (stereo partly drawn) [Example 9.45, 1′-{[(4S)-2,2-dimethyl-1,3-dioxolan-4-yl}methyl]-2,3-dihydrospiro[furo[2,3-g][1,4]benzodioxine-8,3′-indol]-2′(1′H)-one]
melting point: 55 to 57 °C
IC50 (sodium channel; activity level class): 1 to 100 nM
inhibition at 10 µM (CYP3A4): > 50%

COCCOCCN1C(=O)C2(COc3cc4c(cc32)OCCO4)c2c(OC)cc(OC)cc21 (stereo not drawn) [Example 9.73, 4′,6′-dimethoxy-1′-[2-(2-methoxyethoxy)ethyl]-2,3-dihydrospiro[furo[2,3-g][1,4]benzodioxine-8,3′-indol]-2′(1′H)-one]
melting point: 158 to 160 °C
IC50 (sodium channel): 1000 to 10000 nM
inhibition at 10 µM (CYP3A4): > 50%

O=C1N(Cc2cccc(-c3noc(C(F)(F)F)n3)c2)c2ccccc2C12COc1cc3c(cc12)CCO3 (stereo not drawn) [Example 11.28, 1′-{3-[5-(trifluoromethyl)-1,2,4-oxadiazol-3-yl]benzyl}-5,6-dihydrospiro[benzo[1,2-b:5,4-b′]difuran-3,3′-indol]-2′(1′H)-one]
melting point: 182 to 188 °C
IC50 (sodium channel): 100 to 1000 nM
inhibition at 10 µM (CYP3A4): > 50%

CCCCN(C)CCCN1C(=O)C2(COc3cc4c(cc32)CCO4)c2ccccc21.Cl (stereo not drawn) [Example 15.2, 1′-{3-[butyl(methyl)amino]propyl}-5,6-dihydrospiro[benzo[1,2-b:5,4-b′]difuran-3,3′-indol]-2′(1′H)-one hydrochloride]
melting point: 96 to 99 °C
IC50 (sodium channel): 1000 to 10000 nM
inhibition at 10 µM (CYP3A4): > 50%

N#Cc1ccc2c(c1)C1(COc3cc4c(cc31)OCCO4)C(=O)N2Cc1ccccn1 (stereo not drawn) [Example 2.50, 2′-oxo-1′-(pyridin-2-ylmethyl)-1′,2,2′,3-tetrahydrospiro[furo[2,3-g][1,4]benzodioxine-8,3′-indole]-5′-carbonitrile]
melting point: 198 to 199 °C
IC50 (sodium channel; activity level class): 1 to 100 nM
inhibition at 10 µM (CYP3A4): < 50%

O=C1N(CC2CC2(F)F)c2ccccc2C12COc1cc3c(cc12)OCCO3 (stereo not drawn) [Example 5.21, 1′-[(2,2-difluorocyclopropyl)methyl]-2,3-dihydrospiro[furo[2,3-g][1,4]benzodioxine-8,3′-indol]-2′(1′H)-one]
melting point: 162 to 164 °C
IC50 (sodium channel; activity level class): 1 to 100 nM
inhibition at 10 µM (CYP3A4): < 50%

COc1cc2c(cc1F)C1(CO2)C(=O)Nc2ccccc21 (stereo not drawn) [Example 3.7, 5-fluoro-6-methoxyspiro[1-benzofuran-3,3′-indol]-2′(1′H)-one]
melting point: 222 to 225 °C
IC50 (sodium channel; activity level class): 1000 to 10000 nM
inhibition at 10 µM (CYP3A4): < 50%

O=C1N(Cc2ccccc2C(F)F)c2ccccc2C12COc1cc3c(cc12)OCCO3 (stereo not drawn) [Example 8.17]
melting point: 191 to 193 °C
IC50 (sodium channel; activity level class): 1 to 100 nM
inhibition at 10 µM (CYP3A4): < 50%

Nc1cccc2c1C1(COc3cc4c(cc31)CCO4)C(=O)N2C[C@H]1CCCO1 (stereo partly drawn) [Example 11.39, 4′-amino-1′-[(2R)-tetrahydrofuran-2-ylmethyl]-5,6-dihydrospiro[benzo[1,2-b:5,4-b′]difuran-3,3′-indol]-2′(1′H)-one]
melting point: 190 to 192 °C
IC50 (sodium channel): 100 to 1000 nM
inhibition at 10 µM (CYP3A4): > 50%

O=C(NCc1ccccc1Cl)c1ccccc1CN1C(=O)C2(COc3cc4c(cc32)CCO4)c2ccccc21 (stereo not drawn) [Example 12.16, N-(2-chlorobenzyl)-2-[(2′-oxo-5,6-dihydrospiro[benzo[1,2-b:5,4-b′]difuran-3,3′-indol]-1′(2′H)-yl)methyl]benzamide]
melting point: 148 to 150 °C
IC50 (sodium channel): 100 to 1000 nM
inhibition at 10 µM (CYP3A4): > 50%

O=C1N(Cc2ccc(-c3ccno3)cc2)c2ccccc2C12COc1cc3c(cc12)OCCO3 (stereo not drawn) [Example 4.97, 1′-(4-isoxazol-5-ylbenzyl)-2,3-dihydrospiro[furo[2,3-g][1,4]benzodioxine-8,3′-indol]-2′(1′H)-one]
melting point: 209 to 212 °C
IC50 (sodium channel; activity level class): 1 to 100 nM
inhibition at 10 µM (CYP3A4): < 50%

O=C1N(Cc2cc(=O)[nH]c(=O)[nH]2)c2ccccc2C12COc1cc3c(cc12)OCO3 (stereo not drawn) [Example 5.38, 6-[(2′-oxospiro[furo[2,3-f][1,3]benzodioxole-7,3′-indol]-1′(2′H)-yl)methyl]pyrimidine-2,4(1H,3H)-dione]
melting point: > 300 °C
IC50 (sodium channel; activity level class): 1000 to 10000 nM
inhibition at 10 µM (CYP3A4): < 50%

O=C1N(Cc2cnccn2)c2ccccc2[C@]12COc1cc3c(cc12)OCCO3 [Example 5.16, (8S)-1′-(pyrazin-2-ylmethyl)-2,3-dihydrospiro[furo[2,3-g][1,4]benzodioxine-8,3′-indol]-2′(1′H)-one]
melting point: 216 to 218 °C
IC50 (sodium channel; activity level class): 1 to 100 nM
inhibition at 10 µM (CYP3A4): < 50%

O=C1N(Cc2ccc(OCc3ccccc3)cn2)c2ccccc2C12COc1ccc3nonc3c12 (stereo not drawn) [Example 9.67, 1-{[5-(benzyloxy)pyridin-2-yl]methyl}spiro[furo[3,2-e][2,1,3]benzoxadiazole-8,3′-indol]-2′(1′H)-one]
melting point: 209 to 212 °C
IC50 (sodium channel): 100 to 1000 nM
inhibition at 10 µM (CYP3A4): < 50%

COc1ccc(CN2C(=O)C3(COc4cc(OC)c(C#N)cc43)c3ccccc32)cc1 (stereo not drawn) [Example 9.46, 6-methoxy-1′-(4-methoxybenzyl)-2′-oxo-1′,2′-dihydrospiro[1-benzofuran-3,3′-indole]-5-carbonitrile]
melting point: 207 to 208 °C
IC50 (sodium channel; activity level class): 100 to 1000 nM
inhibition at 10 µM (CYP3A4): > 50%
